# Square brackets hold non-standard residues; d marks the D form. Peptide text beside a SMILES is read from it. Nspe = C[C@H](NCC(=O)O)c1ccccc1; Nlys = NCCCCNCC(=O)O
# Key:
# human erythrocytes = assay: Hemolysis assay; assay type: cell-based
# Summary of the method: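 Peptoid dilution series (1:2 in PBS) combined with equal volume of 20 vol % human red cells from heparinised blood, 37 °C for 1 h. Released hemoglobin measured as supernatant absorbance at 350 nm post-centrifugation, scaled between PBS-only wells and 0.2 vol % Triton X-100 total lysis.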
# E. coli ATCC 35218 = assay type: cell-based; conditions: Table 8; CAMHB
# MTS assay, NIH 3T3 cells = assay type: cell-based, mouse; conditions: NIH 3T3 fibroblast cells; Table 6; 50% inhibitory dose against NIH 3T3 mouse fibroblast cells; read-out: ID50
# Summary of the method: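 NIH/3T3 cells seeded at 5,000 per well, grown a day in DMEM with 10% FBS, then washed and exposed to serially diluted peptoid in HBSS together with MTS reagent. Absorbance at 490 nm read after 3 hours at 37 °C as a measure of metabolic activity; mean of six replicates.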
# [1] = tested on: Staphyloccus aureus (ATCC #25923); assay: Murine intraperitoneal infection model; assay type: in vivo; conditions: mouse, S. aureus I.P., 4 mg/kg peptoid I.P.; eleven mice for 1-Nhis6,12
# Description: Using a murine peritoneal injection mouse model, the ability of peptoids to treat infection was evaluated in vivo. The results from three separate studies of peptoid 1 and two of peptoid 1-Nhis6,12 against saline treated controls are shown in FIG. 7. The horizontal line represents the geometric mean of each population.
# Murine intraperitoneal infection model. Bacteria was prepared by inoculating 5 mL of MHB with a single colony of Staphyloccus aureus (ATCC #25923) from a freshly streaked plate and grown overnight at 37 C. The following morning, the bacteria was subcultured by diluting 1/3 in MHB and grown for approximately 1 .5 hours. The bacteria were then diluted 10-fold in a 5% mucin in PBS solution and thoroughly mixed. A sample was reserved to later determine the amount of bacteria the mice received.
# Mice were weighed, marked, and injected I.P. with 200 uL of S. aureus inoculum. Four hours post infection, mice were treated I.P. with 4 mg/kg peptoid (˜100 ug per mouse). The infection is allowed to proceed overnight. Mice were euthanized by CO2 asphyxiation after 24 hours, and the peritoneal cavity was exposed and lavaged with 5 mL PBS. The lavage was mixed and reserved on ice until plating. The lavages were diluted to 10^−5 (in1/10 increments) in PBS, and all dilutions were plated onto MH agar, in duplicate. 50 uL of lavage was spot plated, allowed to dry, and incubated overnight at 37° C. Colonies were counted the following day, and the CFU/ml of each sample was calculated. Plates that had too many colonies to count were assigned an arbitrary number of 1000 colonies.
# [2] = tested on: both strains of E. faecalis; assay type: cell-based; conditions: text summary of Table 7A
# Description: The activities of ampetoids tested against BSL2 Gram-positive strains, however, compared very favorably to those of pexiganan.
# Broad-spectrum antibacterial assays. MICs of compounds were determined by microdilution procedure in Mueller-Hinton broth (MHB) in accordance with CLSI M7-A6 protocols in a manner similar to that described for the screen antibacterial assays. Inoculated microtiter plates were incubated at 35° C. for 24 hours prior to the result being recorded. Four ATCC strains that were used as standards are recommended by CLSI: Pseudomonas aeruginosa ATCC 27853, Escherichia coli ATCC 25922, Staphylococcus aureus ATCC 29213 and Enterococcus faecalis ATCC 29212. Other strains from the ATCC collection include Proteus vulgaris ATCC 49132, Proteus mirabilis ATCC 35659, Klebsiella pneumoniae ATCC 33495, Enterobacter aerogenes ATCC 35029 and Serratia marcescens ATCC 13880. S. aureus NRS100 (COL) is a well characterized methicillian-resistant S. aureus (MRSA) strain. The strains S. aureus VAN1 and S. aureus VAN2, vancomycin-resistant MRSA strains that were isolated in Michigan and Pennsylvania, were the first vancomycin-resistant strains clinically isolated. S. aureus NRS 119 and S. aureus NRS 120 are linezolid-resistant isolates from the Network on Antimicrobial Resistance in S. aureus (NARSA) collection. […]
structure (smiles),measurement,setting,value
"C[C@@H](c1ccccc1)N(CC(N)=O)C(=O)CN(C(=O)CN(CCCCN)C(=O)CN(C(=O)CN(C(=O)CN(CCCCN)C(=O)CN(C(=O)CN(C(=O)CN(CCCCN)C(=O)CN(C(=O)CN(C(=O)CNCCCCN)[C@@H](C)c1ccccc1)[C@@H](C)c1ccccc1)[C@@H](C)c1ccccc1)[C@@H](C)c1ccccc1)[C@@H](C)c1ccccc1)[C@@H](C)c1ccccc1)[C@@H](C)c1ccccc1 [compound 1, H-(NLys-Nspe-Nspe)4-NH2] (H-[Nlys][Nspe][Nspe][Nlys][Nspe][Nspe][Nlys][Nspe][Nspe][Nlys][Nspe][Nspe]-NH2)",HD10,"human erythrocytes; Table 6, 10% hemolytic dose",21 µM
same,HD10,human erythrocytes; Table 8,14 µM
same,HD50,human erythrocytes; Table 8,63 µM
same,MIC for E. coli ATCC 35218,E. coli ATCC 35218,6.3 µM
same,CC50 at 3 h,"MTS assay, NIH 3T3 cells",5.1 µM
same,mice that died prematurely during the exposure period,[1],no mice
same,"MIC, range over both strains of E. faecalis",[2],4 to 8 µg/mL

# — patent US20120295838A1, “Selective poly-substituted glycine antibiotics and related compositions” (priority 2008, published 2012)
